≈ marks a conversion by molar mass, not a printed value.
settings: buffer; pH 7.4; 6.0 h; 150.0 µM

| solubility kinetic | Compound |
| --- | --- |
| < 1 µg/mL | CCOc1ccc(CCNC(=O)c2cc3sccc3n2Cc2cccc(C)c2)cc1OCC |
| 21.3 µg/mL (≈ 47 µM) | CC(=O)c1ccc(N[S+](=O)([O-])c2cccc(NC(=O)c3[nH]c(C)c(C(C)=O)c3C)c2)cc1 |
| 6.45 µg/mL (≈ 19.2 µM) | Oc1ccc(CNc2ccc(C(F)(F)F)cc2F)c2cccnc12 |
| < 1 µg/mL | COc1cc(C(=O)Nc2nc(-c3ccccc3)cs2)ccc1NS(=O)(=O)c1ccc(C)cc1 |
| 43.7 µg/mL (≈ 118 µM) | c1ccc(Nc2cc3c(cn2)CN(Cc2c[nH]c4ccccc24)CCN3)cc1 |
| 1.1 µg/mL (≈ 3.65 µM) | Cc1cc(Nc2nc(-c3ccncc3)nc3ccccc23)n[nH]1 |
| < 1 µg/mL | Cc1ccc(-c2cc(C(=O)NCc3cnn(C)c3C)c3cc(Br)ccc3n2)cc1 |
| > 39 µg/mL | Cl.N=c1c2c(n(Cc3ccccc3)c3c1CCC3)CCC2 |
| < 1 µg/mL | CC(C)Oc1ccc(CCNC(=O)c2cc3sccc3n2Cc2ccccc2)cc1OC(C)C |
| 2.5 µg/mL (≈ 8.88 µM) | Cc1ccc(-c2nn(C(C)(C)C)c3ncnc(N)c23)cc1 |
| 1.11 µg/mL (≈ 2.62 µM) | O=[S+]([O-])(Nc1ccccc1)c1ccc(NCc2cccc(C(F)(F)F)c2F)cc1 |
| 14.1 µg/mL (≈ 38.2 µM) | CC(=O)c1cccc(-c2csc3ncnc(Sc4nnnn4C)c23)c1 |
| 26.3 µg/mL (≈ 70.3 µM) | CC(C)(C)C(=O)N1CCN(c2nccc(Nc3ccccc3Cl)n2)CC1 |
| > 51 µg/mL | O=C(O)c1cn(C2CC2)c2cc(N3C[C@@H]4C[C@H]3CN4)c(F)cc2c1=O |
| 10.6 µg/mL (≈ 27.5 µM) | O=C(CCc1ccccc1)Nc1ccc(S(=O)(=O)Nc2nccs2)cc1 |
| 8.21 µg/mL (≈ 27 µM) | CCOC(=O)Nc1ccc(NCc2ccc(F)cc2)nc1N |
| > 39 µg/mL | NC(=O)c1cnc(N[C@@H]2CCCC[C@@H]2N)nc1Nc1cccc(-n2nccn2)c1 |
| < 1 µg/mL | CNc1oc(-c2cccc3ccccc23)nc1C(=O)OC |
| 8.9 µg/mL (≈ 30.3 µM) | c1ccc(C2=Nn3c(nnc3-c3ccncc3)SC2)cc1 |
| 31.7 µg/mL (≈ 82.8 µM) | CC[C@H](NC(=O)c1c(O)c(-c2ccccc2)nc2ccccc12)c1ccccc1 |

| solubility kinetic | Compound |
| --- | --- |
| < 1 µg/mL | COc1ccc(-c2ccc3nc(-c4cc(F)cc(F)c4F)oc3c2)c(OC)c1OC |
| < 1 µg/mL | O=C(Nc1nc(-c2ccccc2)cs1)c1ccncc1NS(=O)(=O)c1ccc(Cl)cc1 |
| 24.4 µg/mL (≈ 67.2 µM) | Cc1ccnc(N=C(N)N2CCN(c3cccc(C(F)(F)F)c3)CC2)c1 |
| < 1 µg/mL | Cc1ccccc1C(=O)N1CCc2cc(-c3nc(NC(=O)Cc4ccc5c(c4)OCO5)sc3C)ccc21 |
| < 1 µg/mL | Cc1ccccc1S(=O)(=O)N1CCc2cc(-c3nc(NC(=O)Cc4ccc5c(c4)OCO5)sc3C)ccc21 |
| > 47 µg/mL | O=C(c1cc2ccccc2[nH]1)N1CCc2c(n(Cc3cccnc3)n(CCc3ccccc3)c2=O)C1 |
| < 1 µg/mL | CCc1cccc(NC(=O)CSc2nc3ccccc3nc2N2CCCCC2)c1 |
| 9.08 µg/mL (≈ 28.9 µM) | COc1ccc(CCNc2ncnc3onc(C)c23)c(OC)c1 |
| 2.28 µg/mL (≈ 4.9 µM) | COc1ccc(NC(=O)c2[nH]c(C)c(C(C)=O)c2C)cc1S(=O)(=O)Nc1cccc(C#N)c1 |
| 21 µg/mL (≈ 52.5 µM) | COc1cc2c(c(OC)c1OC)-c1ccc(OC)c(=O)cc1[C@@H](NC(C)=O)CC2 |
| 16.6 µg/mL (≈ 36.4 µM) | COc1cccc(CNCCSc2nnnn2C)c1OCc1ccc(Cl)cc1Cl |
| > 51 µg/mL | CC(C)(C)NS(=O)(=O)c1ccc(-c2ccc3[nH]nc(N)c3c2)cc1 |
| < 1 µg/mL | Fc1cc(Nc2nc(-c3ccncc3)nc3ccccc23)ccc1-c1cccc(C(F)(F)F)c1 |
| < 1 µg/mL | CCOc1ccc(CCNC(=O)c2cc3sccc3n2Cc2ccccc2)c(F)c1OCC |
| < 1 µg/mL | Cc1ccc(-c2cc(C(=O)NCc3ccc(S(N)(=O)=O)cc3)c3ccccc3n2)cc1C |
| < 1 µg/mL | Cc1ccc(S(=O)(=O)Nc2cnccc2C(=O)Nc2nc(-c3cccc(Cl)c3)cs2)cc1 |
| < 1 µg/mL | CN1CCN(c2cc(-c3nc(Nc4ccc(F)c(F)c4)c4ccccc4n3)ccn2)CC1 |
| < 1 µg/mL | CC(C)COc1ccc(-c2ccc(=O)n(CC(=O)NCCc3ccccc3)n2)cc1 |
| 3.6 µg/mL (≈ 8.88 µM) | COc1cccc(CNc2ccc(S(=O)(=O)Nc3nccs3)cc2)c1OC |

— PubChem BioAssay AID1645848
